“And” between values parts separate entries of the source, which are not always exact repeats. Identical values can stand only once.
Columns and labels:
Assay type in all cases: cell-based
[1] = tested on: Panc-1 pancreatic cancer cells; assay: SRB analysis 2; conditions: 48 hours
[2] = tested on: SW1990 pancreatic cancer cells; assay: SRB analysis 2; conditions: 48 hours
[3] = tested on: SK-OV-3 ovarian cancer cell line; assay: SRB analysis 3; conditions: 48 hours
Method: (§1) Through SRB analysis (n=3), the effect of triple combination treatment of a CAC inhibitor (KN510: omeprazole), ACAA inhibitor (KN713: trimetazidine) and other anticancer drug on cell growth in the cancer cells was analyzed. (see Table 11).
(§2) The SRB assay was performed as follows: each cell line (100 μl) was seeded into 96-well microtiter plates at densities ranging from 5,000 to 40,000 cells/well depending on the doubling time of each cell line. After 24 hours, drug (100 μl per well) was added to each well and the culture was incubated at 37° C. for 48 hours. Cells were then fixed in 50% TCA (50 μl per well) and plates were incubated at 4° C. for a minimum of 1 hour or a maximum of 3 hours. After that, the liquid was removed from the plate, then rinsed 5 times with water and dried for approximately 12-24 hours at room temperature (RT). After the fixed cells were stained with 0.4% SRB (100 μl per well) for 10 minutes at room temperature, the plates were washed 3 times with 1% glacial acetic acid and dried at room temperature for about 12-24 hours. SRB staining was dissolved in 10 mM Trizma base and absorbance was read at 515 nm. The effect of the drug was expressed as GI50 (50% growth inhibition), TGI (total growth inhibition) or LC50 (lethal concentration). GI50 is the maximum concentration at the moment of 50% inhibition of cell proliferation and IC50 is the concentration of the drug that inhibits the enzyme activity in vitro by 50% in this study.

[4] = tested on: MKN45 gastric cancer cell line; assay: SRB analysis 3; conditions: MKN45, 48 hours
Method: as §1, §2

[5] = tested on: ACHN renal cancer cell line; assay: SRB analysis 3; conditions: 48 hours
Method: as §1, §2

[6] = tested on: AGS gastric cancer cell line; assay: SRB analysis 3; conditions: 48 hours
Method: as §1, §2

[7] = tested on: Huh-7 liver cancer cell line; assay: SRB analysis 3; conditions: 48 hours
Method: as §1, §2

[8] = tested on: UACC62 melanoma cell line; assay: SRB analysis 3; conditions: 48 hours
Method: as §1, §2

[9] = tested on: DU145 prostate cancer cell line; assay: SRB analysis 3; conditions: 48 hours
Method: as §1, §2

[10] = tested on: HCT-116 colon cancer cell line; assay: SRB analysis 3; conditions: 48 hours
Method: as §1, §2

A375 melanoma cell line = assay: SRB analysis 3; conditions: 48 hours
Method: as §1, §2

[11] = tested on: Caki-1 renal cancer cell line; assay: SRB analysis 3; conditions: 48 hours
Method: as §1, §2

[12] = tested on: MIA PaCa-2 pancreatic cancer (PDAC) cell line; assay: SRB analysis 3; conditions: 48 hours
Method: as §1, §2

[13] = tested on: SK-hep-1 liver cancer cell line; assay: SRB analysis 3; conditions: 48 hours
Method: as §1, §2

[14] = tested on: PC-3 prostate cancer cell line; assay: SRB analysis 3; conditions: 48 hours
Method: as §1, §2

[15] = tested on: H1975 non-small cell lung cancer (NSCLC) cell line; assay: SRB analysis 3; conditions: 48 hours
Method: as §1, §2

[16] = tested on: MDA-MB-231 breast cancer cell line; assay: SRB analysis 3; conditions: 48 hours
Method: as §1, §2

[17] = tested on: A549 non-small cell lung cancer (NSCLC) cell line; assay: SRB analysis 3; conditions: 48 hours
Method: as §1, §2

[18] = tested on: MCF7 breast cancer cell line; assay: SRB analysis 3; conditions: 48 hours
Method: as §1, §2

[19] = tested on: AsPC-1 pancreatic cancer (PDAC) cell line; assay: SRB analysis 3; conditions: 48 hours
Method: as §1, §2

[20] = tested on: COLO-205 colon cancer cell line; assay: SRB analysis 3; conditions: 48 hours
Method: as §1, §2

[21] = tested on: OVCAR-8 ovarian cancer cell line; assay: SRB analysis 3; conditions: 48 hours
Method: as §1, §2

Compound: COc1ccc2[nH]c([S+]([O-])Cc3ncc(C)c(OC)c3C)nc2c1 (centres unmarked) [KN510, omeprazole]
- degree of cell growth based on the control (100%) ([1]; KN510 100 μM): 63.06%
- degree of cell growth based on the control (100%) ([1]; KN510 200 μM): 19.45%
- degree of cell growth based on the control (100%) ([2]; KN510 100 μM): 90.16%
- degree of cell growth based on the control (100%) ([2]; KN510 200 μM): 63.83%
- cell growth (Control = 100) ([3]; KN510 100 μM): 85.06
- cell growth (Control = 100) ([4]; KN510 100 μM): 62.39
- cell growth (Control = 100) ([5]; KN510 100 μM): 61.17
- cell growth (Control = 100) ([6]; KN510 100 μM): 65.05
- cell growth (Control = 100) ([7]; KN510 100 μM): 77.73
- cell growth (Control = 100) ([8]; KN510 100 μM): 50.83
- cell growth (Control = 100) ([9]; KN510 100 μM): 76.71
- cell growth (Control = 100) ([10]; KN510 100 μM): 79.65
- cell growth (Control = 100) (A375 melanoma cell line; KN510 100 μM): 79.18
- cell growth (Control = 100) ([11]; KN510 100 μM): 102.1283
- cell growth (Control = 100) ([12]; KN510 100 μM): 65.94
- cell growth (Control = 100) ([13]; KN510 100 μM): 60.38
- cell growth (Control = 100) ([14]; KN510 100 μM): 59.63
- cell growth (Control = 100) ([15]; KN510 100 μM): 84.1319
- cell growth (Control = 100) ([16]; KN510 100 μM): 86.99
- cell growth (Control = 100) ([17]; KN510 100 μM): 55.4 and 30.1
- cell growth (Control = 100) ([18]; KN510 100 μM): 70.3
- cell growth (Control = 100) ([19]; KN510 100 μM): 65.83
- cell growth (Control = 100) ([20]; KN510 100 μM): 78.03
- cell growth (Control = 100) ([21]; KN510 100 μM): 68.75

Compound: COc1ccc(CN2CCNCC2)c(OC)c1OC [KN713, trimetazidine]
- cell growth (Control = 100) ([3]; KN713 2.5 mM): 83.37
- cell growth (Control = 100) ([4]; KN713 2.5 mM): 72.85
- cell growth (Control = 100) ([5]; KN713 2.5 mM): 65.67
- cell growth (Control = 100) ([6]; KN713 2.5 mM): 60.34
- cell growth (Control = 100) ([7]; KN713 2.5 mM): 52.09
- cell growth (Control = 100) ([8]; KN713 2.5 mM): 54.65
- cell growth (Control = 100) ([9]; KN713 2.5 mM): 55.68
- cell growth (Control = 100) ([10]; KN713 2.5 mM): 36.64
- cell growth (Control = 100) (A375 melanoma cell line; KN713 2.5 mM): 70.33
- cell growth (Control = 100) ([11]; KN713 2.5 mM): 47.58
- cell growth (Control = 100) ([12]; KN713 2.5 mM): 39.45
- cell growth (Control = 100) ([13]; KN713 2.5 mM): 157.7818
- cell growth (Control = 100) ([14]; KN713 2.5 mM): 45.06
- cell growth (Control = 100) ([15]; KN713 2.5 mM): 62.58
- cell growth (Control = 100) ([16]; KN713 2.5 mM): 74.5469
- cell growth (Control = 100) ([17]; KN713 2.5 mM): 68.8 and 79.2
- cell growth (Control = 100) ([18]; KN713 2.5 mM): 60.36
- cell growth (Control = 100) ([19]; KN713 2.5 mM): 58.71
- cell growth (Control = 100) ([20]; KN713 2.5 mM): 31.62
- cell growth (Control = 100) ([21]; KN713 2.5 mM): 72.86

— US12728119B2, “Pharmaceutical composition for preventing or treating cancer comprising 3-ketoacyl CoA thiolase inhibitor and carnitine acylcarnitine carrier inhibitor” (NATIONAL CANCER CENTER, priority 2020, dated 2026)
